In patent US12304899B2, “Factor XI activation inhibitors” (Merck Sharp & Dohme LLC, priority 2019, dated 2025):

Biological target: T1, Human coagulation factor (F)XI (Homo sapiens, UniProt P03951)
T1 construct: purchased Haematologic Technologies Inc. (FXI); Enzyme Research Laboratories (FXIIa) HCXI-150 (FXI); HFXIIa (FXIIa)
Test: Inhibition of FXIIa mediated activation of FXI (activation of human Factor XI to XIa by human Factor α-XIIa)
Format: biochemical
Conditions: human FXI pre-incubated with compound 30 min at 22° C., activation by human FXIIa 60 min, z-GPR-AFC substrate fluorescence, 4 parameter logistic fit; read-out: Inhibition of FXIIa meditated activation of FXI
Procedure: Inhibition of FXIIa Mediated Activation of FXI
Activation of Human Factor XI to XIa by Human Factor α-XIIa
The assay was performed in 50 mM HEPES, 150 mM NaCl, 5 mM CaCl2, 0.1% PEG-8000, pH 7.4 buffer in black, flat-bottom, polystyrene microplates (Corning, Cat #3573). Serial dilutions (10-point, 3.333-fold) of the test compounds delivered as 10 mM DMSO stocks were prepared in the Labcyte Echo-qualified PP 384 well microplates (Labcyte, Cat #P-05525). Human coagulation factor (F)XI (Haematologic Technologies Inc., Cat #HCXI-150, concentration 46 nM, 19.5 uL) was pre-incubated with 0.5 uL of the test compounds for 30 min at 22° C. The activation was initiated by addition of 10 uL of human coagulation factor (F)XIIa (Enzyme Research Laboratories, Cat #HFXIIa, concentration 30 nM) and the reaction proceeded for 60 min at 22° C., after which it was quenched by addition of a selective inhibitor of FXIIa (Compound 54 in International Patent Publication WO2018093695) concentration 600 uM in DMSO, 1 uL). 10 min after the quench, 29 uL of z-GPR-AFC substrate (Sigma, Cat #C0980-10 MG, concentration 200 uM) was added into each well and the detection reaction proceeded for 60 min at 22° C. Fluorescence at 405/510 nm was measured in end-point mode using an Envision plate-reader (Perkin Elmer). IDBS Activity Base XE (ABase) analysis using 4 parameter logistic fit was performed to determine Minimum, Maximum, EC50, and Slope Factor for each compound.

T1 sequence (P03951 19-625): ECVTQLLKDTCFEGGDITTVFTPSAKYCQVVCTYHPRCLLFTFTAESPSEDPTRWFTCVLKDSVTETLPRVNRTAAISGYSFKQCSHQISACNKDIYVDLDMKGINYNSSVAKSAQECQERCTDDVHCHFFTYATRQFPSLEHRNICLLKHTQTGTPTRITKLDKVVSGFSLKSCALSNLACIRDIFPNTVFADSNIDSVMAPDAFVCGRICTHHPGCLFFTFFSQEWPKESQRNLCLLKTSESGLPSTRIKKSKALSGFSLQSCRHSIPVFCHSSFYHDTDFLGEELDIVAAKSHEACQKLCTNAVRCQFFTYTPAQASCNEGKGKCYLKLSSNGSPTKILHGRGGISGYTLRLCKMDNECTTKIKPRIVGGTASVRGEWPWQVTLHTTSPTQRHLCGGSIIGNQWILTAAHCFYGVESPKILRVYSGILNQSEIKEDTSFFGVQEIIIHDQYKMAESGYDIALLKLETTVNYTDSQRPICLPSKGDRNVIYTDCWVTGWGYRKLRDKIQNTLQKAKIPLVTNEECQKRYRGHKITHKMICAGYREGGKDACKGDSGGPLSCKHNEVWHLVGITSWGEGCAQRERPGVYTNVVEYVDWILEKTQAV

For `O=C(c1cc(C(=O)N2CCCCC2)c2cc(OCc3cn4ccccc4n3)ccc2n1)N1CCC(n2cccn2)CC1` [Example 25, (4-(1H-pyrazol-1-yl)piperidin-1-yl)(6-(imidazo[1,2-a]-pyridin-2-ylmethoxy)-4-(piperidine-1-carbonyl)quin-olin-2-yl)methanone], the EC50 was 34.2 nM.
`N#Cc1ccc(F)cc1COc1ccc2nc(C(=O)N3CCC(C#N)(c4ccccc4)CC3)cc(C(=O)N3CCCCC3)c2c1` [Example 44, 1-(6-((2-cyano-5-fluoro-benzyl)oxy)-4-(piperidine-1-carbonyl)quinoline-2-carbon-yl)-4-phenylpiperidine-4-carbonitrile] gave an EC50 of 44.6 nM.
`N#Cc1ccc(COc2ccc3nc(C(=O)N4CCC(C#N)(c5ccccc5)CC4)cc(C(=O)N4CCCCC4)c3c2)cc1` [Example 31, 1-(6-((4-cyanobenzyl)oxy)-4-(piperidine-1-carbonyl)quin-oline-2-carbonyl)-4-phenyl-piperidine-4-carbonitrile] was tested, and the EC50 was 24.9 nM.
`O=C(c1cc(C(=O)N2CCCCC2)c2cc(OCCCc3cccnc3)ccc2n1)N1CCC(n2cccn2)CC1` [Example 8, (4-(1H-pyrazol-1-yl)piperidin-1-yl)(4-(piperidine-1-carbon-yl)-6-(3-(pyridin-3-yl)pro-poxy)quinolin-2-yl)methanone] was tested, and the EC50 was 18.8 nM.
Compound `N#CC1(c2ccccc2)CCN(C(=O)c2cc(C(=O)N3CCCCC3)c3cc(OCc4nc5ccccc5s4)ccc3n2)CC1` [Example 49, 1-(6-(benzo[d]thiazol-2-yl-methoxy)-4-(piperidine-1-carbonyl)quinoline-2-carbonyl)-4-phenylpiperi-dine-4-carbonitrile] has an EC50 of 15 nM.
In the case of `Cn1c(COc2ccc3nc(C(=O)N4CCC(n5cccn5)CC4)cc(C(=O)N4CCCCC4)c3c2)nc2ccccc21` [Example 24, (4-(1H-pyrazol-1-yl)piperidin-1-yl)(6-((1-methyl-1H-benzo-[d]imidazol-2-yl)methoxy)-4-(piperidine-1-carbonyl)-quinolin-2-yl)methanone], the EC50 is reported as 28.9 nM.
In the case of `N#CC1(c2ccccc2)CCN(C(=O)c2cc(C(=O)N3CCCCC3)c3cc(OCCCn4cccc4)ccc3n2)CC1` [Example 46, 1-(6-(3-(1H-pyrrol-1-yl)-propoxy)-4-(piperidine-1-car-bonyl)quinoline-2-carbonyl)-4-phenylpiperidine-4-carbonitrile], the EC50 is reported as 33.7 nM.
`O=C(c1cc(C(=O)N2CCCCC2)c2cc(OCc3ccc4nonc4c3)ccc2n1)N1CCC(n2cccn2)CC1` [Example 14, (4-(1H-pyrazol-1-yl)piperidin-1-yl)(6-(benzo[c][1,2,5]-oxadiazol-5-ylmethoxy)-4-(piperidine-1-carbonyl)-quinolin-2-yl)methanone] was tested, and the EC50 was 14.7 nM.
`N#CC1(c2ccccc2)CCN(C(=O)c2cc(C(=O)N3CCCCC3)c3cc(OCc4cccc(OC(F)F)c4)ccc3n2)CC1` [Example 33, 1-(6-((3-(difluoro-l3-meth-oxy)phenyl)methoxy)-4-(piperidine-1-carbonyl)quin-oline-2-carbonyl)-4-phenyl-piperidine-4-carbonitrile] gave an EC50 of 35.9 nM.
`N#CC1(c2ccccc2)CCN(C(=O)c2cc(C(=O)N3CCCCC3)c3cc(OCc4cccc([N+](=O)[O-])c4)ccc3n2)CC1` [Example 29, 1-(6-((3-nitrobenzyl)oxy)-4-(piperidine-1-carbonyl)quin-oline-2-carbonyl)-4-phenyl-piperidine-4-carbonitrile] was tested, and the EC50 was 39.7 nM.
`N#Cc1ccc(COc2ccc3nc(C(=O)N4CCC(n5cccn5)CC4)cc(C(=O)N4CCCCC4)c3c2)cc1` [Example 9, 4-(((2-(4-(1H-pyrazol-1-yl)-piperidine-1-carbonyl)-4-(piperidine-1-carbonyl)-quinolin-6-yl)oxy)methyl) benzonitrile] showed an EC50 of 39.6 nM.
With `N#Cc1ccccc1COc1ccc2nc(C(=O)N3CCC(C#N)(c4ccccc4)CC3)cc(C(=O)N3CCCCC3)c2c1` [Example 30, 1-(6-((2-cyanobenzyl)oxy)-4-(piperidine-1-carbonyl)quin-oline-2-carbonyl)-4-phenyl-piperidine-4-carbonitrile] the EC50 was 30.1 nM.
`O=C(c1cc(C(=O)N2CCCCC2)c2cc(OCc3ccc(C(F)(F)F)nc3)ccc2n1)N1CCC(n2cccn2)CC1` [Example 10, (4-(1H-pyrazol-1-yl)piperidin-1-yl)(4-(piperidine-1-carbon-yl)-6-((6-(trifluoromethyl)-pyridin-3-yl)methoxy)-quinolin-2-yl)methanone] gave an EC50 of 21.8 nM.
`CS(=O)(=O)N1CCN(C(=O)c2cc(C(=O)N3CCCCC3)c3cc(OCc4nc5ccccc5s4)ccc3n2)CC1` [Example 68, (6-(benzo[d]thiazol-2-yl-methoxy)-2-(4-(methyl-sulfonyl)piperazine-1-carbonyl)quinolin-4-yl)-(piperidin-1-yl)methanone] showed an EC50 of 19.1 nM.
`N#CC1(c2ccccc2)CCN(C(=O)c2cc(C(=O)N3CCCCC3)c3cc(OCc4ccc(F)cc4[N+](=O)[O-])ccc3n2)CC1` [Example 28, 1-(6-((4-fluoro-2-nitro-benzyl)oxy)-4-(piperidine-1-carbonyl)quinoline-2-carbon-yl)-4-phenylpiperidine-4-carbonitrile] showed an EC50 of 38.9 nM.
`O=C(c1cc(C(=O)N2CCCCC2)c2cc(OCc3nc4ccccc4o3)ccc2n1)N1CCC(n2cccn2)CC1` [Example 23, (4-(1H-pyrazol-1-yl)piperidin-1-yl)(6-(benzo[d]oxazol-2-ylmethoxy)-4-(piperidine-1-carbonyl)quinolin-2-yl) methanone] gave an EC50 of 36.6 nM.
In the case of `Cn1ncc2cc(COc3ccc4nc(C(=O)N5CCC(n6cccn6)CC5)cc(C(=O)N5CCCCC5)c4c3)ccc21` [Example 17, (4-(1H-pyrazol-1-yl)piperidin-1-yl)(6-((1-methyl-1H-indazol-5-yl)methoxy)-4-(piperidine-1-carbonyl)quinolin-2-yl) methanone], the EC50 is reported as 50.8 nM.
Work on `N#CC1(n2cccn2)CCN(C(=O)c2cc(C(=O)N3CCCCC3)c3cc(OCc4nc5ccccc5s4)ccc3n2)CC1` [Example 58, 1-(6-(benzo[d]thiazol-2-ylmethoxy)-4-(piperidine-1-carbonyl)quinoline-2-carbonyl)-4-(1H-pyrazol-1-yl)piperidine-4-carbonitrile] yielded an EC50 of 33.7 nM.
`O=C(c1cc(C(=O)N2CCCCC2)c2cc(OCc3nc4ccccc4s3)c(F)cc2n1)N1CCC(n2cccn2)CC1` [Example 75, (4-(1H-pyrazol-1-yl)piperidin-1-yl)(6-(benzo[d]thiazol-2-ylmethoxy)-7-fluoro-4-(piperidine-1-carbonyl)quinolin-2-yl)methanone] gave an EC50 of 18.8 nM.
Compound `N#CC1(c2ccccc2)CCN(C(=O)c2cc(C(=O)N3CCCCC3)c3cc(OCc4ccccn4)ccc3n2)CC1` [Example 48, 4-phenyl-1-(4-(piperidine-1-carbonyl)-6-(pyridin-2-yl-methoxy)quinoline-2-carbon-yl)piperidine-4-carbonitrile] has an EC50 of 44.9 nM.
For `O=C(c1cc(C(=O)N2CCCCC2)c2cc(OCc3nc4ccccc4s3)ccc2n1)N1CCCN(Cc2nccs2)CC1` [Example 71, 4-(6-(benzo[d]thiazol-2-yl-methoxy)-4-(piperidine-1-carbonyl)quinoline-2-car-bonyl)-1-(thiazol-2-yl-methyl)-1,4-diazepan-1-ium 2,2,2-trifluoroacetate], the EC50 was 48.6 nM.
`O=C(c1cc(C(=O)N2CCCCC2)c2cc(OCc3ccc4snnc4c3)ccc2n1)N1CCC(n2cccn2)CC1` [Example 7, (4-(1H-pyrazol-1-yl)piperidin-1-yl)(6-(benzo[d][1,2,3]thiadiazol-5-ylmethoxy)-4-(piperidine-1-carbonyl)quinolin-2-yl)methanone] gave an EC50 of 19.5 nM.
Work on `O=C(c1cc(C(=O)N2CCCCC2)c2cc(OCc3nc4ccccc4s3)ccc2n1)N1CCC(c2cc[nH]n2)CC1` [Example 63, (4-(1H-pyrazol-3-yl)piperi-din-1-yl)(6-(benzo[d]-thiazol-2-ylmethoxy)-4-(piperidine-1-carbonyl)-quinolin-2-yl)methanone] yielded an EC50 of 31 nM.
`CC(=O)NC1CC2(CCN(C(=O)c3cc(C(=O)N4CCCCC4)c4cc(OCc5nc6ccccc6s5)ccc4n3)CC2)C1` [Example 73, N-(7-(6-(benzo[d]thiazol-2-ylmethoxy)-4-(piperi-dine-1-carbonyl)quinoline-2-carbonyl)-7-azaspiro-[3.5]nonan-2-yl)acetamide] showed an EC50 of 38.5 nM.
Compound `N#CC1(c2ccccc2)CCN(C(=O)c2cc(C(=O)N3CCCCC3)c3cc(OCc4nc5ccccc5s4)ccc3n2)CC1` [Example 60, 1-(6-(benzo[d]thiazol-2-yl-methoxy)-4-(piperidine-1-carbonyl)quinoline-2-car-onyl)-4-phenylpiperidine-4-carbonitrile] has an EC50 of 37.7 nM.
Compound `O=C(c1cc(C(=O)N2CCCCC2)c2cc(OCc3ccc4nnsc4c3)ccc2n1)N1CCC(n2cccn2)CC1` [Example 6, (4-(1H-pyrazol-1-yl)piperidin-1-yl)(6-(benzo[d][1,2,3]thiadiazol-6-ylmethoxy)-4-(piperidine-1-carbonyl)quinolin-2-yl)methanone] has an EC50 of 49.2 nM.
